The values below are quoted from earlier work in US20260284015A1, “DOSAGE REGIME OF CRINECERFONT FOR TREATING CONGENITAL ADRENAL HYPERPLASIA” (Neurocrine Biosciences, Inc., priority 2023, published 2026).

Molecules are shown by their SMILES.

For this series the following is noted: glucocorticoid dose conversion factor relative to hydrocortisone.
Consider `C[C@@H]1C[C@H]2[C@@H]3CCC4=CC(=O)C=C[C@]4(C)[C@@]3(F)[C@@H](O)C[C@]2(C)[C@@]1(O)C(=O)CO` [Dexamethasone], for which the “Hydrocortisone dose equivalent conversion” value is recorded as 60×.
Consider `C[C@H]1C[C@@H]2[C@H]([C@@H](O)C[C@@]3(C)[C@H]2CC[C@]3(O)C(=O)CO)[C@@]2(C)C=CC(=O)C=C12` [Methylprednisolone], for which the “Hydrocortisone dose equivalent conversion” value is 4×.
With `C[C@]12C=CC(=O)C=C1CC[C@@H]1[C@@H]2[C@@H](O)C[C@@]2(C)[C@H]1CC[C@]2(O)C(=O)CO` [Prednisolone], the “Hydrocortisone dose equivalent conversion” value is reported as 4×.
